Results from patent US8440810B2, “Riboswitches, methods for their use, and compositions for use with riboswitches” (Yale University, priority 2002, dated 2013).
“Also recorded” adds a separate entry of the source. Read-outs that look alike come from different tables or passages of the source.

Key:
165 thiM RNA = format: binding, E. coli; conditions: for Kd: read-out: apparent KD
From the text: (§1) Specifically, TPP-dependent modulation of the spontaneous cleavage of RNA constructs was visualized by polyacrylamide gel electrophoresis (PAGE). […] Some RNAs were subjected to no reaction, partial digestion with alkali, or partial digestion with RNase T1 (G-specific cleavage) (see FIG. 6a). Composite plots of the fraction of RNA cleaved at specific sites versus the logarithm of the concentration of ligand (e.g. FIG. 7a) were generated to provide an estimate of the apparent KD. Fraction cleaved values were normalized relative to the highest and lowest cleavage values measured for each site.
NR, ^−OH and T1 represent RNAs subjected to no reaction, partial digestion with alkali, or partial digestion with RNase Tl (G-specific cleavage), respectively. Product bands representing cleavage after selected G residues are numbered and identified by filled arrowheads. The asterisk identifies modulation of RNA structure involving the Shine-Dalgarno (SD) sequence. Gel separations were analyzed using a phosphorimager (Molecular Dynamics) and quantitated using ImageQuant software.

[1] = molecular target: TPP-binding domain of A. thaliana (128-nucleotide RNA); assay: In-line probing of Arabidopsis TPP-binding domain; design: species or system Arabidopsis thaliana; conditions: read-out: apparent dissociation constant (KD)
91 thiM RNA = format: binding, E. coli
From the text: as §1
ii. The thiM and thiC mRNA Leaders Serve as High-Affinity Metabolite Receptors. […] Arrows reflect the estimated concentration of TPP needed to attain half maximal modulation of RNA (apparent KD). […] The boxed data was generated using TPP with the truncated RNAs 91 thiM and 111 thiC. […] Details for the RNA probing analysis are similar to those described above in connection with FIG. 6A. The graphs were generated by ImageQuant software.

240 thiC RNA = assay: In-line probing of 240 thiC RNA; format: binding, E. coli; conditions: Example 2, FIG. 7A; read-out: apparent KD
Protocol: Some RNAs were subjected to no reaction, partial digestion with alkali, or partial digestion with RNase T1 (G-specific cleavage) (see FIG. 6a). Composite plots of the fraction of RNA cleaved at specific sites versus the logarithm of the concentration of ligand (e.g. FIG. 7a) were generated to provide an estimate of the apparent KD. Fraction cleaved values were normalized relative to the highest and lowest cleavage values measured for each site. […] Reactions were conducted and analyzed as described in above for FIG. 6A. […] The truncated RNA 111 thiC is boxed. Nucleotides enclosed in boxes identify an alternative pairing.

93 xpt RNA [2] = assay: In-line probing of 93 xpt RNA; format: binding, B. subtilis
[3] = molecular target: purine-binding aptamer from a pool of random-sequence RNAs; conditions: cited from earlier work
[4] = test system: wild-type ydhL riboswitch fused to β-galactosidase reporter gene; assay: ydhL-lacZ β-galactosidase reporter expression; format: cell-based, B. subtilis
201 xpt RNA = assay: In-line probing of 201 xpt RNA; conditions: read-out: apparent KD; limit of detection of the assay
[5] = test system: xpt-pbuX 5′-UTR fused to β-galactosidase reporter gene; assay: xpt-lacZ β-galactosidase reporter expression; format: cell-based, B. subtilis; conditions: wild-type xpt construct
93 xpt RNA [6] = assay: Equilibrium dialysis with 93 xpt RNA; format: binding, B. subtilis
purE RNA = assay: In-line probing of purE RNA; format: binding, B. subtilis; conditions: 1 μM ligand
80 ydhL RNA = assay: In-line probing of 80 ydhL RNA; format: binding, B. subtilis
[7] = test system: xpt riboswitch variant with the C to U mutation at position 74, reporter construct; format: cell-based, B. subtilis
179 lysC RNA [8] = assay: In-line probing of 179 lysC RNA; conditions: read-out: apparent KD; half-maximal structural modulation
lysC 5′-UTR template = assay: In vitro transcription termination assay, lysC 5′-UTR; conditions: 10 mM ligand, E. coli RNA polymerase, single-round
[9] = test system: lysC 5′-UTR fused to lacZ reporter gene; format: cell-based, B. subtilis; conditions: wild-type construct, minimal medium plus 1 mM compound
179 lysC RNA [10] = format: binding, B. subtilis
[11] = molecular target: RNA construct encompassing nucleotides 1 through 315 of the lysC 5′-UTR; conditions: read-out: apparent KD; aptamer plus expression platform
ribD leader region = assay: In vitro transcription of ribD leader region; format: biochemical; conditions: T7 or B. subtilis RNA polymerase, no additional protein factors
ribD RNA = assay: In-line probing of ribD RNA (RFN element); format: binding, B. subtilis; conditions: read-out: apparent KD
Protocol: To assess whether the RFN element of ribD was responsive to FMN, a fragment of the corresponding 5′-UTR was 5′-^32P labeled and incubated in the absence and presence of FMN, and the resulting fragments were analyzed by polyacrylamide gel electrophoresis (PAGE). […] To obtain values for apparent dissociation constant (apparent KD) for FMN, in-line probing assays were repeated with trace amounts of ribD RNA and increasing concentrations of FMN; the ligand concentration that correlates with half-maximal modulation of RNA structure should reflect the apparent KD.

[12] = test system: yitJ, yoaD and metK leader constructs; assay: In vitro transcription termination with T7 RNA polymerase, yitJ, yoaD and metK leaders; conditions: 50 μM
[13] = test system: aptamer domain from B. subtilis cysH; format: binding
metI leader construct = format: biochemical, B. subtilis
251 yitJ RNA = format: binding, B. subtilis
124 yitJ RNA = assay: In-line probing of 124 yitJ RNA; format: binding, B. subtilis; conditions: minimized aptamer domain
[14] = molecular target: 202-nucleotide leader sequence of the btuB mRNA; format: binding, Escherichia coli; conditions: half-maximal structural modulation, 25° C., 20 mM MgCl2, pH 8.3; read-out: apparent KD
Protocol: Precursor mRNA leader molecules were prepared by in vitro transcription from templates generated by PCR (see In vivo Expression Constructs and Assays section below) and 5′ ^32p-labeled using methods described previously (Soukup and Breaker, Allosteric nucleic acid catalysts. Curr. Opin. Struct. Biol. 10, […] (2000)). Approximately 20 nM of labeled RNA precursor was incubated as described in the brief description of FIG. 1. Accompanying digestions were carried out using reaction conditions similar to those described previously (Soukup and Breaker, Relationship between internucleotide linkage geometry and the stability of […]. RNA 5, 1308-1325 (1999)). […]
Metabolite-dependent conformational changes in the 202-nucleotide leader sequence of the btuB mRNA. […] The image was generated using a phosphorimager (Molecular Dynamics), and cleavage yields were quantitated by using ImageQuant software. […]
The btuB mRNA leader forms a saturable binding site for AdoCbl. […] 5′-^32P-labeled mRNA leader molecules were incubated, separated, and analyzed as described in the in the legend to FIG. 1A, and include identical control and marker lanes as indicated. […] Fraction cleaved values were normalized relative to the highest and lowest cleavage values measured for each location, including the values obtained upon incubation in the absence of AdoCbl. […]

[15] = test system: 202-nucleotide mRNA leader (btuB); assay: Equilibrium dialysis with btuB mRNA leader
btuB leader-lacZ fusion = assay: btuB-lacZ expression assay; format: cell-based, E. coli; conditions: wild-type btuB leader
[16] = molecular target: btuB mRNA leader mutants m4 and m5; format: binding, Escherichia coli; conditions: mutants m4 and m5 (possible P4/P9 pseudoknot)

In the case of `Cc1ncc(C[n+]2csc(CCO[P@](=O)(O)OP(=O)(O)O)c2C)c(N)n1` [TPP, thiamine pyrophosphate], the structure modulation (165 thiM RNA; 40 μM each compound) is reported as “induce modulation”, the Kd (165 thiM RNA; Example 2, FIG. 7A) is reported as 600 nM and the Kd (165 thiM RNA; thiM RNA as reported in Example 3 (FIG. 13)) is reported as 500 nM. The Kd [1] was ~50 nM, the “improvement of apparent KD compared to the longer construct (165 thiM)” value (91 thiM RNA) was “approximately 20 fold” and the Kd (240 thiC RNA) was 100 nM.

For `Nc1nc2nc[nH]c2c(=O)[nH]1` [guanine], the “modulation of spontaneous cleavage pattern” value (93 xpt RNA [2]; 1 μM (adenine as much as 1 mM), 93 xpt and 201 xpt) is listed as “undergo significant alteration”, the Kd (93 xpt RNA [2]; wild-type xpt RNA, Example 8 (FIG. 39a), read-out: apparent KD) is listed as ≤ 5 nM and the Kd [3] is listed as 1300 nM. The β-galactosidase activity [4] was “very low β-galactosidase activity”, the Kd (201 xpt RNA) was ≤ 5 nM and the “repression of β-galactosidase reporter expression” value [5] was “repressed by guanine; also recorded: causes repression of β-galactosidase expression”. For the same molecule, the “tritiated guanine co-localized with RNA” value (93 xpt RNA [6]; 100 nM 3H-guanine, 300 nM RNA) was “greater than 90%”, the “redistribution of 3H-guanine by excess unlabeled competitor” value (93 xpt RNA [6]; 500 nM analog) was “redistributes” and the “shift of distribution of tritiated ligand by RNA” value (93 xpt RNA [6]; Example 8: 100 nM tritiated ligand, 3 μM RNA) was “able to shift the distribution of tritiated guanine”. The allosteric response (purE RNA) was “responds allosterically to guanine”, the “binding / structural modulation” value (80 ydhL RNA) was “remains unchanged” and the “regulation of reporter expression” value [7] was “loss of regulation upon addition of guanine”.

For `NCCCC[C@H](N)C(=O)O` [L-lysine], the Kd (179 lysC RNA [8]) was ~1000 nM, the “terminated product relative to total transcription yield” value (lysC 5′-UTR template) was ~76% and the “repression of β-galactosidase reporter expression” value [9] was “exhibits ligand-dependent modulation”. For the same molecule, the Kd (179 lysC RNA [10]; 1 μM RNA, 3H-lysine 50 nM to 2.5 μM, read-out: apparent KD (Scatchard plot)) was ~1000 nM, the “fraction of tritiated L-lysine in chamber b” value (179 lysC RNA [10]; 10 μM 179 lysC in chamber b, 50 nM 3H-lysine, 10 hr) was ~0.8 and the “restoration of equal tritium distribution by unlabeled competitor” value (179 lysC RNA [10]; 50 μM unlabeled compound, additional 10 hr) was “symmetric distribution of tritium is restored”. For the same molecule, the Kd [11] was ~500000 nM.

For `Cc1cc2nc3c(=O)[nH]c(=O)nc-3n(C[C@H](O)[C@H](O)[C@H](O)COP(=O)(O)O)c2cc1C` [FMN, flavin mononucleotide], the “transcription termination at the intrinsic terminator” value (ribD leader region) was “specifically induced by FMN” and the Kd (ribD RNA) was ~5 nM.

With `C[S+](CC[C@H](N)C(=O)O)C[C@H]1O[C@@H](n2cnc3c(N)ncnc32)[C@H](O)[C@@H]1O` (some centres unmarked) [SAM, S-adenosylmethionine] the transcription termination [12] was “modest transcription termination”, the “affinity poorer than that of yitJ” value [13] was “more than 2 orders of magnitude” and the termination product (metI leader construct; 50 μM effector, wild-type metI) was ~75%. For the same molecule, the “additional yield in transcription termination” value (metI leader construct; mutant Mabc (six mutations)) was ~20%, the Kd (251 yitJ RNA) was ~200 nM and the Kd (124 yitJ RNA) was ~4 nM.

For `C/C1=C2/[N-]C([C@H](CC(N)=O)[C@@]2(C)CCC(=O)NC[C@@H](C)OP(=O)([O-])O[C@H]2[C@@H](O)[C@@H](n3cnc4cc(C)c(C)cc43)O[C@@H]2CO)[C@]2(C)N=C(/C(C)=C3N=C(/C=C4N=C1[C@@H](CCC(N)=O)C\4(C)C)[C@@H](CCC(N)=O)[C@]\3(C)CC(N)=O)[C@@H](CCC(N)=O)[C@]2(C)CC(N)=O.[CH2-][C@H]1O[C@@H](n2cnc3c(N)ncnc32)[C@@H](O)[C@@H]1O.[Co+3]` [AdoCbl, 5′-deoxy-5′-adenosylcobalamin], the Kd [14] was ~300 nM, the “restoration of equal tritium distribution by excess unlabeled compound” value ([15]; 5,000 pmoles unlabeled compound added to chamber b) was “restores equal distribution of tritium” and the “cpm ratio (chamber b relative to a)” value ([15]; 3H-AdoCbl, mRNA leader in chamber b) was ~2. For the same molecule, the “regulatory effector function on reporter gene inside cells” value (btuB leader-lacZ fusion) was “down regulation of a reporter gene” and the Kd [16] was ~5000 nM.
